From DBAASP
Values after ≈ are worked out from the molar mass of the structure shown.

How the values were obtained:
Test in all cases: ≥ marks a high value that may be exact or a test limit, other limits are often not marked, values filed in µg/mL are converted to µM
[1] = test system: Staphylococcus aureus ATCC 25923
[2] = test system: Escherichia coli ATCC 25922
[3] = test system: Pseudomonas aeruginosa CMCCB 10104
[4] = test system: Candida albicans ATCC 2002
[5] = test system: Candida albicans ATCC 90028
[6] = test system: Escherichia coli ATCC 25726
[7] = test system: Staphylococcus epidermidis
[8] = test system: Salmonella enterica serovar Typhimurium
[9] = test system: Pseudomonas aeruginosa H103
[10] = test system: Enterococcus faecalis ATCC 29212
Candida albicans = test system: Candida albicans
Escherichia coli UB1005 = test system: Escherichia coli UB1005

| Structure (SMILES) | MIC [1] [µM] | MIC [2] [µM] | MIC [3] [µM] | MIC [4] [µM] | MIC [5] [µM] | MIC [6] [µM] | MIC [7] [µM] | MIC [8] [µM] | MIC [9] [µM] | MIC [10] [µM] | MIC (Candida albicans) [µM] | MIC (Escherichia coli UB1005) [µM] |
| --- | --- | --- | --- | --- | --- | --- | --- | --- | --- | --- | --- | --- |
| CC[C@H](C)[C@H](NC(=O)CNC(=O)[C@H](C)NC(=O)[C@H](Cc1ccccc1)NC(=O)[C@H](CC(C)C)NC(=O)[C@H](CCCCN)NC(=O)[C@@H]1CCCN1C(=O)[C@H](CC(C)C)NC(=O)[C@@H](N)Cc1ccccc1)C(=O)N[C@H](C(=O)N[C@@H](CO)C(=O)N[C@@H](CCCCN)C(=O)N[C@@H](CC(N)=O)C(=O)N[C@@H](Cc1ccccc1)C(=O)O)[C@@H](C)CC [FLPKLFAGIISKNF] | 13.2 (≈ 21 µg/mL) | 6.58 (≈ 10.5 µg/mL) | 6.58 (≈ 10.5 µg/mL) | 3.32 (≈ 5.3 µg/mL) |  |  |  |  |  |  |  |  |
| CC[C@H](C)[C@H](NC(=O)CN)C(=O)N[C@@H](Cc1ccccc1)C(=O)N[C@@H](CO)C(=O)N[C@@H](CCCCN)C(=O)N[C@H](C(=O)N[C@@H](CO)C(=O)NCC(=O)N[C@@H](CCCCN)C(=O)N[C@@H](C)C(=O)N[C@H](C(=O)N[C@@H](CCCCN)C(=O)N[C@@H](CC(N)=O)C(=O)N[C@@H](CC(C)C)C(=O)N[C@@H](Cc1ccccc1)C(=O)N[C@H](C(=O)N[C@@H](CCCCN)C(=O)NCC(=O)N[C@@H](C)C(=O)N[C@@H](CCCCN)C(=O)N[C@@H](CC(N)=O)C(=O)N[C@H](C(=O)NCC(=O)N[C@@H](CCCCN)C(=O)N[C@@H](CCC(=O)O)C(=O)N[C@H](C(=O)NCC(=O)N[C@@H](CCSC)C(=O)N[C@@H](CC(=O)O)C(=O)N[C@H](C(=O)N[C@H](C(=O)N[C@@H](CCCN=C(N)N)C(=O)N[C@H](C(=O)NCC(=O)N[C@H](C(=O)N[C@@H](CC(=O)O)C(=O)N[C@H](C(=O)N[C@H](C(=O)NCC(=O)N[C@H]1CSSC[C@@H](C(=O)O)NC(=O)[C@H](CCC(=O)O)NC(=O)CNC(=O)[C@H](CCCCN)NC(=O)[C@H]([C@@H](C)CC)NC(=O)[C@H](CCCCN)NC1=O)C(C)C)C(C)C)[C@@H](C)CC)[C@@H](C)O)C(C)C)C(C)C)C(C)C)C(C)C)[C@@H](C)CC)[C@@H](C)CC)[C@@H](C)CC [GIFSKISGKAIKNLFIKGAKNVGKEVGMDVVRTGIDVVGCKIKGEC] | 0.915 (≈ 4.4 µg/mL) | 1.83 (≈ 8.8 µg/mL) | 3.66 (≈ 17.6 µg/mL) | 1.83 (≈ 8.8 µg/mL) |  |  |  |  |  |  |  |  |
| CC[C@H](C)[C@H](NC(=O)[C@@H](NC(=O)[C@@H](NC(=O)CNC(=O)[C@H](C)NC(=O)[C@@H](NC(=O)[C@H](CC(N)=O)NC(=O)[C@@H](NC(=O)[C@H](C)NC(=O)[C@H](CC(C)C)NC(=O)[C@H](CC(N)=O)NC(=O)[C@H](CCCCN)NC(=O)[C@H](Cc1ccccc1)NC(=O)[C@@H](NC(=O)[C@H](CO)NC(=O)[C@H](CC(C)C)NC(=O)[C@H](CC(C)C)NC(=O)CN)[C@@H](C)O)[C@@H](C)O)C(C)C)[C@@H](C)O)C(C)C)C(=O)N[C@@H](CC(=O)O)C(=O)N[C@H](C(=O)N[C@@H](CC(C)C)C(=O)N[C@@H](CCCCN)C(=O)N[C@H]1CSSC[C@@H](C(=O)N[C@@H](CCCN=C(N)N)C(=O)N[C@H](C(=O)O)[C@@H](C)O)NC(=O)CNC(=O)CNC(=O)[C@H]([C@@H](C)O)NC(=O)[C@H](C(C)C)NC(=O)[C@H](CCCCN)NC1=O)[C@@H](C)O [GLLSTFKNLATNVAGTVIDTLKCKVTGGCRT] | > 80 |  |  |  | ≥ 80 | ≥ 80 |  |  |  |  |  |  |
| CC(C)C[C@H](NC(=O)[C@H](CC(C)C)NC(=O)[C@H](CC(N)=O)NC(=O)[C@H](CCCCN)NC(=O)[C@@H](NC(=O)[C@@H](NC(=O)[C@H](C)NC(=O)[C@H](CC(C)C)NC(=O)[C@@H](NC(=O)CN)C(C)C)[C@@H](C)O)C(C)C)C(=O)N[C@@H](CC(N)=O)C(=O)NCC(=O)N[C@H](C(=O)NCC(=O)N[C@@H](CC(=O)O)C(=O)NCC(=O)N[C@@H](C)C(=O)N[C@@H](C)C(=O)N[C@@H](CCC(N)=O)C(=O)N[C@@H](CO)C(=O)N[C@H](C(=O)N[C@@H](CC(C)C)C(=O)N[C@@H](CCCCN)C(=O)N[C@H](C(=O)N[C@@H](CC(C)C)C(=O)N[C@@H](CO)C(=O)N[C@H]1CSSC[C@@H](C(=O)O)NC(=O)[C@H](CC(=O)O)NC(=O)[C@H](CC(N)=O)NC(=O)[C@H](CO)NC(=O)[C@H](CC(C)C)NC(=O)[C@H](CCCCN)NC1=O)[C@@H](C)O)C(C)C)[C@@H](C)O [GVLATVKNLLNGTGDGAAQSVLKTLSCKLSNDC] | 1.22 (≈ 4 µg/mL) | 2.4 (≈ 7.9 µg/mL) | 4.8 (≈ 15.8 µg/mL) | 1.22 (≈ 4 µg/mL) |  |  |  |  |  |  |  |  |
| CC[C@H](C)[C@H](N)C(=O)N[C@H](C(=O)N[C@H](C(=O)N1CCC[C@H]1C(=O)N1CCC[C@H]1C(=O)N[C@H](C(=O)N[C@H](C(=O)N[C@@H](CCCCN)C(=O)N[C@@H](CC(=O)O)C(=O)N[C@H](C(=O)N[C@@H](CC(C)C)C(=O)N[C@@H](CCCCN)C(=O)N[C@@H](CCCCN)C(=O)N[C@@H](Cc1ccccc1)C(=O)N[C@H](C(=O)N[C@@H](CCCCN)C(=O)NCC(=O)N[C@@H](C)C(=O)N[C@H](C(=O)N[C@@H](CO)C(=O)NCC(=O)N[C@H](C(=O)N[C@@H](CCSC)C(N)=O)C(C)C)[C@@H](C)CC)[C@@H](C)CC)[C@@H](C)O)C(C)C)[C@@H](C)CC)[C@@H](C)CC)[C@@H](C)O [ITIPPIVKDTLKKFIKGAISGVM] | 20 (≈ 49.4 µg/mL) |  |  |  |  | ≥ 80 |  |  |  |  |  |  |
| NCCCC[C@H](NC(=O)[C@H](Cc1c[nH]c2ccccc12)NC(=O)[C@H](Cc1c[nH]c2ccccc12)NC(=O)[C@H](CCCN=C(N)N)NC(=O)[C@@H](N)CCCCN)C(=O)N[C@@H](Cc1c[nH]c2ccccc12)C(=O)N[C@@H](Cc1c[nH]c2ccccc12)C(=O)N[C@@H](CCCN=C(N)N)C(=O)N[C@@H](CCCN=C(N)N)C(=O)O [KRWWKWWRR] | 0.7 (≈ 1.04 µg/mL) |  |  |  |  |  | 0.7 (≈ 1.04 µg/mL) | 5.6 (≈ 8.33 µg/mL) | 11.1 (≈ 16.5 µg/mL) | 11.1 (≈ 16.5 µg/mL) | 5.6 (≈ 8.33 µg/mL) | 2.8 (≈ 4.17 µg/mL) |
| NCCCC[C@H](N)C(=O)N[C@@H](CCCN=C(N)N)C(=O)N[C@@H](Cc1c[nH]c2ccccc12)C(=O)N[C@@H](Cc1c[nH]c2ccccc12)C(=O)N[C@@H](Cc1c[nH]c2ccccc12)C(=O)N[C@@H](Cc1c[nH]c2ccccc12)C(=O)N[C@@H](CCCN=C(N)N)C(=O)N[C@@H](Cc1ccccc1)C(=O)N[C@@H](CCCN=C(N)N)C(=O)O [KRWWWWRFR] | 0.7 (≈ 1.05 µg/mL) |  |  |  |  |  | 0.7 (≈ 1.05 µg/mL) | 5.9 (≈ 8.89 µg/mL) | ≥ 46.9 | 11.7 (≈ 17.6 µg/mL) | 5.9 (≈ 8.89 µg/mL) | 2.9 (≈ 4.37 µg/mL) |
| CC[C@H](C)[C@H](NC(=O)[C@H](Cc1ccccc1)NC(=O)[C@H](CCCN=C(N)N)NC(=O)[C@@H](N)CC(C)C)C(=O)N[C@@H](CC(C)C)C(=O)N[C@@H](Cc1c[nH]c2ccccc12)C(=O)N[C@@H](Cc1c[nH]c2ccccc12)C(=O)N[C@@H](CCCCN)C(=O)N[C@@H](CCCN=C(N)N)C(=O)O [LRFILWWKR] | 1.6 (≈ 2.11 µg/mL) |  |  |  |  |  | 1.6 (≈ 2.11 µg/mL) | 6.4 (≈ 8.43 µg/mL) | 25.7 (≈ 33.9 µg/mL) | 6.4 (≈ 8.43 µg/mL) | 6.4 (≈ 8.43 µg/mL) | 3.2 (≈ 4.22 µg/mL) |
| CC(C)C[C@H](NC(=O)[C@H](CCCCN)NC(=O)[C@H](CCCN=C(N)N)NC(=O)[C@H](Cc1c[nH]c2ccccc12)NC(=O)[C@@H](N)CC(N)=O)C(=O)N[C@@H](Cc1ccc(O)cc1)C(=O)N[C@@H](CCCN=C(N)N)C(=O)N[C@@H](CCCN=C(N)N)C(=O)N[C@@H](CCCCN)C(=O)O [NWRKLYRRK] | 86.5 (≈ 114 µg/mL) |  |  |  |  |  | ≥ 43.3 | ≥ 86.5 | ≥ 86.5 | > 86.5 | 86.5 (≈ 114 µg/mL) | ≥ 86.5 |
| CSCC[C@H](NC(=O)[C@H](CCC(=O)O)NC(=O)[C@H](CS)NC(=O)[C@H](C)NC(=O)[C@@H](NC(=O)CNC(=O)[C@H](C)NC(=O)[C@@H](NC(=O)[C@H](Cc1ccccc1)NC(=O)[C@@H]1CCCN1C(=O)[C@H](CC(C)C)NC(=O)[C@@H](N)CCC(N)=O)C(C)C)C(C)C)C(=O)N[C@@H](CS)C(=O)N[C@@H](CCC(N)=O)C(=O)N[C@@H](CS)C(=O)N[C@H](C(=O)N[C@@H](Cc1ccc(O)cc1)C(=O)N[C@H]1CSSC[C@@H](C(=O)O)NC(=O)[C@H](CCCCN)NC(=O)[C@H](CCCCN)NC(=O)[C@H](CO)NC(=O)[C@H](C)NC(=O)[C@H](C)NC1=O)C(C)C [QLPFVAGVACEMCQCVYCAASKKC] | 4.47 (≈ 11.4 µg/mL) | 2.23 (≈ 5.7 µg/mL) | 2.23 (≈ 5.7 µg/mL) | 4.47 (≈ 11.4 µg/mL) |  |  |  |  |  |  |  |  |
| CC[C@H](C)[C@H](NC(=O)[C@H](CCCN=C(N)N)NC(=O)[C@H](CC(C)C)NC(=O)[C@H](CCCN=C(N)N)NC(=O)[C@@H](N)C(C)C)C(=O)N[C@@H](CCCN=C(N)N)C(=O)N[C@H](C(=O)N[C@@H](C)C(=O)N[C@H](C(=O)N[C@H](C(=O)N[C@@H](CCCN=C(N)N)C(=O)N[C@@H](CCCCN)C(N)=O)[C@@H](C)CC)C(C)C)C(C)C [VRLRIRVAVIRK] | 4.06 (≈ 6 µg/mL) |  |  |  |  |  | 1.08 (≈ 1.6 µg/mL) | 4.06 (≈ 6 µg/mL) | 4.06 (≈ 6 µg/mL) |  | 2.03 (≈ 3 µg/mL) | 2.03 (≈ 3 µg/mL) |
| CSCC[C@H](NC(=O)[C@H](CCCCN)NC(=O)[C@H](Cc1ccccc1)NC(=O)[C@@H](N)Cc1c[nH]c2ccccc12)C(=O)N[C@@H](CCCN=C(N)N)C(=O)N[C@@H](Cc1c[nH]c2ccccc12)C(=O)N[C@@H](Cc1c[nH]c2ccccc12)C(=O)NCC(=O)N[C@@H](CCCN=C(N)N)C(=O)O [WFKMRWWGR] | 2.9 (≈ 3.92 µg/mL) |  |  |  |  |  | 2.9 (≈ 3.92 µg/mL) | 23.1 (≈ 31.2 µg/mL) | ≥ 46.1 | 11.5 (≈ 15.6 µg/mL) | 11.5 (≈ 15.6 µg/mL) | 5.8 (≈ 7.85 µg/mL) |
